These compounds were tested against T1, human nAChRα6-α3 chimera, in addition to β2 and β3^V273S subunits (Homo sapiens, UniProt P32297+Q15825) (assay: fluorescence-based calcium assay: inhibition of nicotine stimulated nAChRα6 activity (FLIPR)). Settings: HEK cell line stably expressing the receptor; 10 min pre-incubation, nicotine EC80; 10-point curve, duplicate wells; read-out: IC50.
T1 construct: expressed in transfected cells
Method: The ability of the test compounds to inhibit nicotine stimulated nAChRα6 activity was determined in a fluorescence-based calcium assay. Compound activity was determined using a HEK cell line stably expressing a human nAChRα6-α3 chimera, in addition to β2 and β3^V273S subunits (as in Capelli et al, Br J Pharmacol 163(2): 313-29 2011). In this cell line, nicotine stimulated an increase in intracellular calcium concentration, measured as an increase in fluorescence when cells were incubated with a calcium sensitive dye. Test compounds were pre-incubated with cells prior to nicotine stimulation to detect any reduction in the magnitude of the nicotine response.
The day prior to the assay, compounds were serially diluted in DMSO (200× final assay concentration (FAC)), in 384-well plates which were then stored in the dark at room temperature (RT) until use. Cells were seeded at 20 k/well in black, poly-D-lysine coated, clear bottom 384-well plates and incubated for 4 hours at 37° C., followed by overnight incubation at 30° C. The following day, the DMSO compound plate was diluted 1:20 (10×FAC) in assay buffer (HEPES buffered saline solution with 10 mM HEPES, 0.1% bovine serum albumin, 1 mM probenecid). A nicotine solution was prepared in assay buffer (7×FAC) and dispensed into a 384-well plate. The growth media was removed from the cell plate, replaced with 53 μl calcium dye/well (Calcium 5; Molecular Devices) and the plate incubated at 30° C. for 45 minutes. Test compounds were then added to the cells (7 μl of 10×FAC) and incubated for 10 minutes, after which nicotine EC80 (10 μl of 7×FAC) was added and changes in fluorescence measured using a FLIPR plate reader (Molecular Devices).
Compound activity was examined using a 10-point, half-log concentration-response range and each concentration was tested in duplicate wells.

T1 sequence (Q05901 25-458 V273S): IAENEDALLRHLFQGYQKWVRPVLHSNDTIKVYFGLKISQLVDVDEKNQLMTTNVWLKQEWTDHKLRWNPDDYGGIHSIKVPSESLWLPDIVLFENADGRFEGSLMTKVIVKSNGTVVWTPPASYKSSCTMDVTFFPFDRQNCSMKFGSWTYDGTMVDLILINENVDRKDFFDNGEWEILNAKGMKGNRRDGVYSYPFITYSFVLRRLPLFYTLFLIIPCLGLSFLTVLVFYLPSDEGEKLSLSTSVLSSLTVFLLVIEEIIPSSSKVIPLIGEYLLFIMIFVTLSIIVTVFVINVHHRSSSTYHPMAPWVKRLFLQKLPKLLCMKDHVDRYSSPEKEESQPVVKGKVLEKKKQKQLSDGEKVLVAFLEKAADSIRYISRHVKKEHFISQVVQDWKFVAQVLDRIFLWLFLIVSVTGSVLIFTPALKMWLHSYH
T1 sequence (P17787 26-502, stated change not applied, further chain): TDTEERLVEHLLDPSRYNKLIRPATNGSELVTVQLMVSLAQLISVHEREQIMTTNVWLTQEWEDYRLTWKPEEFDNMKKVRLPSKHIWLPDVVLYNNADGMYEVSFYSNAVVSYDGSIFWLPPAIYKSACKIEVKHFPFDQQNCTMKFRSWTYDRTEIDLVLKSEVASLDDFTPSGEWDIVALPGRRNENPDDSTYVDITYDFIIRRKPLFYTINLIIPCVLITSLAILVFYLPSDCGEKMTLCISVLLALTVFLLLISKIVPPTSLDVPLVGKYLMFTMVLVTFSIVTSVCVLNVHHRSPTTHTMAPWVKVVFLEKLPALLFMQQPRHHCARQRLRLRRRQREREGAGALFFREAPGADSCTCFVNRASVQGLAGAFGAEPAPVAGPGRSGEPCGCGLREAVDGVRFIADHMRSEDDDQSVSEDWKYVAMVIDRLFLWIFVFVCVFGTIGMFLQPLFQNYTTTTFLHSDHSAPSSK
T1 sequence (Q15825+P32297 fused with the stated changes): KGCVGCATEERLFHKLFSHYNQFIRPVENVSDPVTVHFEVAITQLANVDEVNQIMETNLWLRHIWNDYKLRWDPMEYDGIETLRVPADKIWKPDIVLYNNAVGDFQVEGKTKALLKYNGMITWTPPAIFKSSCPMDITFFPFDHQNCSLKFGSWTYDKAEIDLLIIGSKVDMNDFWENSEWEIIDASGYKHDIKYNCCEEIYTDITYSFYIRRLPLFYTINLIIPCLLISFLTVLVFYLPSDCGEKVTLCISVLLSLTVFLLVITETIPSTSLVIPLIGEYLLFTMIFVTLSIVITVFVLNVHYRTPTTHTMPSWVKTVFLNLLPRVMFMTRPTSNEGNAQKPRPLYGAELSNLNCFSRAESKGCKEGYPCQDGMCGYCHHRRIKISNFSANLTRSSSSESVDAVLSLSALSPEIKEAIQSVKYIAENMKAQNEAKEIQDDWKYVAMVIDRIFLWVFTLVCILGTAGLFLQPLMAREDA

SMILES	IC50 [nM]
Cc1nc(NC(C)[C@@H]2CCCN2)ncc1-c1ccc(C(F)(F)F)cc1F (single isomer, unassigned) [Example 130a, 5-(2-fluoro-4-(trifluoromethyl)phenyl)-4-methyl-N-((1*R)-1-((2S)-pyrrolidin-2-yl)ethyl)pyrimidin-2-amine]	118
Cc1nc(NC(C)[C@@H]2CCCN2)ncc1-c1ccc(C(F)(F)F)cc1F (single isomer, unassigned) [Example 130b, 5-(2-fluoro-4-(trifluoromethyl)phenyl)-4-methyl-N-((1*S)-1-((2S)-pyrrolidin-2-yl)ethyl)pyrimidin-2-amine]	49
Cc1nc(NC(C)[C@H]2CCCN2C)ncc1-c1ccc(C(F)(F)F)cc1F (single isomer, unassigned) [Example 131a, 5-(2-fluoro-4-(trifluoromethyl)phenyl)-4-methyl-N-((1*R)-1-((2R)-1-methylpyrrolidin-2-yl)ethyl)pyrimidin-2-amine]	172
Cc1nc(NC(C)[C@H]2CCCN2C)ncc1-c1ccc(C(F)(F)F)cc1F (single isomer, unassigned) [Example 131b, 5-(2-fluoro-4-(trifluoromethyl)phenyl)-4-methyl-N-((1*S)-1-((2R)-1-methylpyrrolidin-2-yl)ethyl)pyrimidin-2-amine]	291
Cc1nc(NC(C)[C@@H]2CCCN2C)ncc1-c1ccc(C(F)(F)F)cc1F (single isomer, unassigned) [Example 132a, 5-(2-fluoro-4-(trifluoromethyl)phenyl)-4-methyl-N-((1*R)-1-((2S)-1-methylpyrrolidin-2-yl)ethyl)pyrimidin-2-amine]	92
Cc1nc(NC(C)[C@@H]2CCCN2C)ncc1-c1ccc(C(F)(F)F)cc1F (single isomer, unassigned) [Example 132b, 5-(2-fluoro-4-(trifluoromethyl)phenyl)-4-methyl-N-((1*S)-1-((2S)-1-methylpyrrolidin-2-yl)ethyl)pyrimidin-2-amine]	97
Cc1nc(NC[C@H]2NCC[C@@H]2F)ncc1-c1ccc(C(F)(F)F)cc1F (single isomer, unassigned) [Example 133a, 5-(2-fluoro-4-(trifluoromethyl)phenyl)-N-(((2*S,3*R)-3-fluoropyrrolidin-2-yl)methyl)-4-methyl-pyrimidin-2-amine]	305
Cc1nc(NC[C@H]2NCC[C@@H]2F)ncc1-c1ccc(C(F)(F)F)cc1F (single isomer, unassigned) [Example 133b, 5-(2-fluoro-4-(trifluoromethyl)phenyl)-N-(((2*R,3*S)-3-fluoropyrrolidin-2-yl)methyl)-4-methyl-pyrimidin-2-amine]	300
Cc1nc(NCC2CCC(C)N2C)ncc1-c1ccc(C(F)(F)F)cc1F (single isomer, unassigned) [Example 138a, N-(((2*R,5*R)-1,5-dimethylpyrrolidin-2-yl)methyl)-5-(2-fluoro-4-(trifluoromethyl)phenyl)-4-methyl-pyrimidin-2-amine]	207
Cc1nc(NCC2CCC(C)N2C)ncc1-c1ccc(C(F)(F)F)cc1F (single isomer, unassigned) [Example 138b, N-(((2*S,5*S)-1,5-dimethylpyrrolidin-2-yl)methyl)-5-(2-fluoro-4-(trifluoromethyl)phenyl)-4-methyl-pyrimidin-2-amine]	85
Cc1nc(NCC2CCC(C)N2C)ncc1-c1ccc(C(F)(F)F)cc1F (single isomer, unassigned) [Example 138c, N-(((2*R,5*S)-1,5-dimethylpyrrolidin-2-yl)methyl)-5-(2-fluoro-4-(trifluoromethyl)phenyl)-4-methyl-pyrimidin-2-amine]	69
Cc1nc(NCC2CCC(C)N2C)ncc1-c1ccc(C(F)(F)F)cc1F (single isomer, unassigned) [Example 138d, N-(((2*S,5*R)-1,5-dimethylpyrrolidin-2-yl)methyl)-5-(2-fluoro-4-(trifluoromethyl)phenyl)-4-methyl-pyrimidin-2-amine]	25
